Data as given in article PMC6199744, “Development of Chemical Proteomics for the Folateome and Analysis of the Kinetoplastid Folateome” (ACS Infectious Diseases, 2018).
Like-named read-outs stand apart in the source and are kept apart here.

Assays:
Type in all cases: binding
[1] = biological target: T1, HeLa cell extract proteins (Homo sapiens, UniProt Q969S8)
T1 construct: endogenous in cells; host or cells: HeLa cell extract
T1 sequence (Q969S8 1-669): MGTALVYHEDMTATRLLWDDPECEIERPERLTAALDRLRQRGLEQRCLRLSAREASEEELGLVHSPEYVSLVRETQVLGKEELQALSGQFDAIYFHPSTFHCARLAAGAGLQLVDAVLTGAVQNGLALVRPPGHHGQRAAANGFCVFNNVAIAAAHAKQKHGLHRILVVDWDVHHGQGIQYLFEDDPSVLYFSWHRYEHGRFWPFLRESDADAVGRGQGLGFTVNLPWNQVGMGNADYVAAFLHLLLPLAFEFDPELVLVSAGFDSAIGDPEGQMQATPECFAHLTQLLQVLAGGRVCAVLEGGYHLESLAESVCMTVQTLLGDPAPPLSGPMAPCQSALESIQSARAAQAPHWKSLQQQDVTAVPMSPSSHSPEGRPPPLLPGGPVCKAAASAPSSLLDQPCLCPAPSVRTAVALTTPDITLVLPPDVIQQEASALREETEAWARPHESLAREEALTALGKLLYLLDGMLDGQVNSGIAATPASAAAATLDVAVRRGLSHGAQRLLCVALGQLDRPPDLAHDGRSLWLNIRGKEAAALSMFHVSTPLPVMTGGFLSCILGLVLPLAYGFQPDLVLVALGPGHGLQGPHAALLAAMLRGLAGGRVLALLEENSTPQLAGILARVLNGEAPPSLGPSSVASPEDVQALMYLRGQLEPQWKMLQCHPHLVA

[2] = biological target: T2, HeLa cell extract proteins (Homo sapiens, UniProt P49368)
T2 construct: endogenous in cells; host or cells: HeLa cell extract
T2 sequence (P49368 1-545): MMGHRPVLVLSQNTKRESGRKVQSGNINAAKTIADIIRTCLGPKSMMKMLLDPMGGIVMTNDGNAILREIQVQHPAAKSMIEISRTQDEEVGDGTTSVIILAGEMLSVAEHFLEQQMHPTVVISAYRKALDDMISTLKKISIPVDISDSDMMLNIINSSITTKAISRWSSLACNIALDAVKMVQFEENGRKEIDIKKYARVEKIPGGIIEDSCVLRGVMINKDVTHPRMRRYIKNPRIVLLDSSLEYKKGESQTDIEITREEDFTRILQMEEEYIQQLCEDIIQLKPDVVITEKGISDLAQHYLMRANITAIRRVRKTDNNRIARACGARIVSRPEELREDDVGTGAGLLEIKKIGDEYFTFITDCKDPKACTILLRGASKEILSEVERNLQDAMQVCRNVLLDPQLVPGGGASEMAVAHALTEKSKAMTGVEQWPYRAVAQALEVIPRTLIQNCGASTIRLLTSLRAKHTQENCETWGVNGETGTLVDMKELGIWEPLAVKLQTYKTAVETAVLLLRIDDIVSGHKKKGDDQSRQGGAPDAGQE

[3] = biological target: T3, HeLa cell extract proteins (Homo sapiens, UniProt P33991)
T3 construct: endogenous in cells; host or cells: HeLa cell extract
T3 sequence (P33991 1-863): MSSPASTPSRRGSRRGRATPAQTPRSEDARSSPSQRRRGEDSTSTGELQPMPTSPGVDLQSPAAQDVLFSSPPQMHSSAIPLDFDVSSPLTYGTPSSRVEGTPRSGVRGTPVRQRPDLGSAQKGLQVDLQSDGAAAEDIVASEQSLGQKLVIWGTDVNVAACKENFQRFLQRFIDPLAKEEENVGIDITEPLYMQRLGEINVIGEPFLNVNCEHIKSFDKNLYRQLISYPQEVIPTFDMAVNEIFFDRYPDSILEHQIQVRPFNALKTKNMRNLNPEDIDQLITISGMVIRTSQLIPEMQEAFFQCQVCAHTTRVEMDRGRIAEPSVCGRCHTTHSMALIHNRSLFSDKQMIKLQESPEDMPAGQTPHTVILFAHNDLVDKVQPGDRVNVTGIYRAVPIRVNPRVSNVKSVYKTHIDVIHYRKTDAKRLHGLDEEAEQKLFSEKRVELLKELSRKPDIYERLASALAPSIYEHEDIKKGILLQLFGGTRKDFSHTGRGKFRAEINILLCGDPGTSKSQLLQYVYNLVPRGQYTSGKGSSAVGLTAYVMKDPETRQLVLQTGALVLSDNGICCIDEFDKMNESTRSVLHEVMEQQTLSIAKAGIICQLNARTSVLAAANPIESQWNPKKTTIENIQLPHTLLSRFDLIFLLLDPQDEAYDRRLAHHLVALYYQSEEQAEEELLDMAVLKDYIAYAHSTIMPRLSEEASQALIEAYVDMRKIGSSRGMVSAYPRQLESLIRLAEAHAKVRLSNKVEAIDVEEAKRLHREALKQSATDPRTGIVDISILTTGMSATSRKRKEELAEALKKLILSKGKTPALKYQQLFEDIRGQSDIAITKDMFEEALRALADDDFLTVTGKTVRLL

[4] = biological target: T4, HeLa cell extract proteins (Homo sapiens, UniProt Q8IUH3)
T4 construct: endogenous in cells; host or cells: HeLa cell extract
T4 sequence (Q8IUH3 1-476): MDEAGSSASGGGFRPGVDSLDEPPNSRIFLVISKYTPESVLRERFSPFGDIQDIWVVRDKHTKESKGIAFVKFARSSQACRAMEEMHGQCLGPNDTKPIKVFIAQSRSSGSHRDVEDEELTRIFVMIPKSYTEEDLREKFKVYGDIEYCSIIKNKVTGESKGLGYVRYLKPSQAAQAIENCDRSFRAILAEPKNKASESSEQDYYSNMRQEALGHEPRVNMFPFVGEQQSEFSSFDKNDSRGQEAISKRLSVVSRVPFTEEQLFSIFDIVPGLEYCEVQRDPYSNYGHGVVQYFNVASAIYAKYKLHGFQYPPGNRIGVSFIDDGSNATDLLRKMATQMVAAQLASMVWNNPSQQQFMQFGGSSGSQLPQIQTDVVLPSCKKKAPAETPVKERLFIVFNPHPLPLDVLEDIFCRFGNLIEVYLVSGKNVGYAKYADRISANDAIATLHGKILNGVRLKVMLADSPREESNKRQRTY

[5] = HeLa, protein RBM45 (ISOFORM 1 OF DEVELOPMENTALLY-REGULATED RNA-BINDING PROTEIN 1)

| SMILES | fold changes relative to vehicle control ([1]; HeLa, protein HDAC10) | fold changes relative to vehicle control ([2]; protein CCT3, HeLa) | fold changes relative to vehicle control ([3]; protein MCM4, HeLa) | fold changes relative to vehicle control [4, 5] | fold changes relative to vehicle control [1] | fold changes relative to vehicle control [2] | fold changes relative to vehicle control [3] | fold changes relative to vehicle control [4] | fold changes relative to vehicle control ([1]; captured protein HDAC10, HeLa) | fold changes relative to vehicle control ([4]; HeLa, protein RBM45) |
| --- | --- | --- | --- | --- | --- | --- | --- | --- | --- | --- |
| Nc1nc2c(c(=O)[nH]1)N(C=O)C(CNc1ccc(C(=O)N[C@@H](CCC(=O)O)C(=O)O)cc1)CN2 (stereo partly shown) [LEU, leucovorin] | 0.95 | 0.88 | 0.87 | 1.12 |  |  |  |  |  |  |
| Nc1nc2[nH]cc(CCc3ccc(C(=O)N[C@@H](CCC(=O)O)C(=O)O)cc3)c2c(=O)[nH]1 [PTX, pemetrexed] |  |  |  |  | 0.85 | 1 | 0.96 | 1.04 |  |  |
| CCCCCCOc1ccc(Cc2cnc(N)nc2N)cc1 [compound 1] |  | 1.22 | 1.11 |  |  |  |  |  | 0.82 | 1.06 |
| CCCCCCOc1cccc(Cc2cnc(N)nc2N)c1 [compound 2] |  | 1.72 | 1.59 |  |  |  |  |  | 0.88 | 0.99 |
| Nc1nc2cccc(-c3ccccc3)c2n1Cc1ccc(Cl)c(Cl)c1 [compound 3] |  | 1.06 | 0.9 |  |  |  |  |  | 0.9 | 0.96 |
| NCCOCCOCC(=O)Nc1nc2ncc(CNc3ccc(C(=O)NC(CCC(=O)O)C(=O)O)cc3)nc2c(=O)[nH]1 (stereo not shown) [compound 6] | 0.82 | 1.16 | 1.08 | 1 |  |  |  |  |  |  |
| NCCCNc1ccc(C(=O)NC(CCC(=O)O)C(=O)O)cc1 (stereo not shown) [compound 7] | 0.95 | 1 | 0.93 | 0.96 |  |  |  |  |  |  |
